Read-outs that look alike come from different tables or passages of the source.
Tests used:
[1] = GI S9 stability (Ex. Z), rat intestinal S9; type: in vitro ADME; conditions: rat intestinal S9, 1.0 mg/mL protein, 2 μM substrate, pH 7.4, read-out: GIS9 Rat T½ (per Ex. Z)
How it was run: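 Pooled intestinal S9 at 1.0 mg/mL protein in PBS, pH 7.4, with substrate at 2 μM final, sampled at 0–120 min and quenched in methanol/acetonitrile containing labetalol. Remaining parent quantified by LC-MS peak area ratio. Half-life from first-order exponential decline fit.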

[2] = GI S9 stability (Ex. Z), human intestinal S9; type: in vitro ADME; conditions: human intestinal S9, 1.0 mg/mL protein, 2 μM substrate, pH 7.4, read-out: GIS9 Human T½ (per Ex. Z)
Experimental: Example Z: GI S9 stability data:
Stock solutions of test compounds in dimethyl sulfoxide (DMSO) having a final concentration of 10 mM were prepared and used in all experiments. Sekisui XenoTech (Kansas City, KS) provided pooled intestinal S9 fractions. All other chemicals were purchased from Sigma-Aldrich (St. Louis, MO) or VWR (West Chester, PA). Internal Standard/Quench (IS/Q) used to stop reactions was 100 nM labetalol in (by volume) methanol (10%) and acetonitrile (90%).
Stability in Intestinal S9 Fractions: Duplicate aliquots of test compound or positive control substrate were added to S9 stock diluted with phosphate buffered saline (137 mM NaCl, 2.7 mM KCl, 10 mM phosphate buffer), pH 7.4, to obtain a protein concentration of 1.0 mg/mL. The metabolic reactions were initiated by the addition of the substrates to the S9 reaction mixture to a final concentration of 2 μM. At 0, 10, 20, 30, 60 and 120 min, 25 μL aliquots of the reaction mixture were transferred to plates containing 225 μl of IS/Q solution. After quenching, the plates were centrifuged at 3000×g for 30 minutes. 150 μL aliquots of each supernatant were dried down then reconstituted with 300 μL water. Aliquots (10 μL) of the prepared samples were analyzed on a Thermo Q-Exactive mass spectrometer as described below.
Liquid Chromatography—Mass Spectrometry: Quantification of test compounds and control substrate was performed by analyte/internal standard peak area ratio (PAR) values measured on a Thermo Q-Exactive mass spectrometer coupled to a Dionex UltiMate 3000 HPLC with a Leap Technologies HTC PAL autosampler. The column used for analysis was a Waters Acquity BEH C18 (1.7 μm particle size, 2.1×50 mm). Mobile phase A consisted of 0.1% (v/v) formic acid in water. Mobile phase B consisted of 0.1% (v/v) formic acid in acetonitrile. Elution of analytes was achieved by a series of linear gradients varying the proportions of A and B. The mass spectrometer was calibrated on a weekly basis and mass tolerance of 5 ppm was used.
Metabolic stabilities in S9 fractions were determined by measuring the rates of disappearance of test compound and positive control substrate.
Data (% of substrate remaining) were plotted on a semi-log scale and fitted using an exponential decline model:
Where Ct—% of substrate remaining at time=t; C0—% of substrate remaining at time=0; t—time; T½—half-life The Half-life (T½) is determined by the following equation: […]
Assuming a first-order reaction, the slope (k) is extrapolated from the aforementioned plotted data.

[3] = tested on: Human Rhinovirus 14 (HRV14) in H1-HeLa cells; assay: H1-HeLa HRV-CTG 384-well Assay (Ex. Y), HRV14; type: cell-based; conditions: Rhinovirus B, 96 h, read-out: EC50 H1-HeLa_HRV14_HRV-CTG 384-well Assay (per Ex Y)
Excerpt: (§1) Example Y: H1-HeLa HRV-CTG 384-well Assay
(§2) H1-Hela cell line (ATCC, Manassas, VA, Cat #CRL-1958) was maintained in Dulbecco's […] (DMEM) (Corning, New York, NY, Cat #15-018CM) supplemented with 10% fetal bovine serum (FBS) (Hyclone, Logan, UT, Cat #SH30071-03), and 1× Penicillin-Streptomycin-L-Glutamine (Corning, New York, NY, Cat #30-009-CI). Cells were passaged 2 times per week to maintain sub-confluent densities and were used for experiments at passage 5-30. The Human Rhinovirus 1B (HRV1B) (ATCC, Manassas, VA, Cat #VR-1645) , Human Rhinovirus 14 (HRV14) (ATCC, Manassas, VA, Cat #VR-284), and Human Rhinovirus 16 (HRV16) (ATCC, Manassas, VA, Cat #BR-283) was obtained through ATCC. Viral infection was monitored by determining viability of H1-HeLa cells as described below.
(§3) Test molecules are prepared in 100% DMSO in 384-well polypropylene plates (Greiner, Monroe, NC, Cat #784201) with 8 compounds per plate in grouped replicates of 4 at 10 serially diluted concentrations (1:3). The serially diluted compounds were transferred to low dead volume Echo plates (Labcyte, Sunnyvale, CA, Cat #LP-0200).
(§4) The test compounds were spotted to 384-well assay plates (Greiner, Monroe, NC, Cat#781091) at 200 nL per well using an Echo acoustic dispenser (Labcyte, Sunnyvale, CA). H1-HeLa cells were harvested and suspended in DMEM (supplemented with 2% FBS and 1× Penicillin-Streptomycin-L-Glutamine) and seeded to the pre-spotted assay plates at 5,000 cells per well in 30 μL. HRV1B, HRV14, and HRV16 was diluted in DMEM (supplemented with 2% FBS and 1× Penicillin-Streptomycin-L-Glutamine) at 97.1 million Infectious Units (IU) per mL, 151 million IU per mL and 221 million IU per mL respectively. 10 μL of virus per well was added to the assay plates containing cells and compounds, for an MOI of 0.5, 1.0, and 0.25 respectively. The assay plates were incubated for 4 days at 37° C. and 5% CO2. At the end of incubation, Celltiter-Glo (Promega, Madison, WI, Cat #(Ga7573) was prepared. The assay plates and Celltiter-Glo reagent were equilibrated to room temperature for at least 15 minutes. 40 μL per well of Celltiter-Glo reagent was added and the plates were incubated at room temperature for 15 minutes before reading the luminescence signal on an EnVision multimode plate reader (Perkin Elmer, Waltham, MA). Rupintrivir was used as positive control and DMSO was used as negative control. Values were normalized to the positive and negative controls (as 0% and 100% replication, respectively) and data was fitted using non-linear regression analysis by Gilead's dose response tool. The EC50 value for each compound was defined as the concentration reducing viral replication by 50%.

[4] = tested on: Human Rhinovirus 16 (HRV16) in H1-HeLa cells; assay: H1-HeLa HRV-CTG 384-well Assay (Ex. Y), HRV16; type: cell-based; conditions: Rhinovirus A, 96 h, read-out: EC50 H1-HeLa_HRV16_HRV-CTG 384-well Assay (per Ex. Y)
Excerpt: as §1, §2, §3, §4

[5] = H1-HeLa cells, HRV14 MOI 1.0, 4 days, Celltiter-Glo
[6] = H1-HeLa cells, HRV16 MOI 0.25, 4 days, Celltiter-Glo

Row | SMILES | half-life at 2 μM [1] [min] | half-life at 2 μM [2] [min] | EC50 ([3]; HRV14, H1-HeLa) [µM] | EC50 ([4]; HRV16, H1-HeLa) [µM] | half-life at 2 μM ([1]; pooled intestinal S9 fractions) [min] | half-life at 2 μM ([2]; pooled intestinal S9 fractions) [min] | EC50 [3, 5] [µM] | EC50 [4, 6] [µM]
1 | N#C[C@]1(COC(=O)Cc2ccccc2)O[C@@H](c2ccc3c(N)ncnn23)[C@H](O)[C@@H]1O [Compound 38, ((2R,3S,4R,5S)-5-(4-aminopyrrolo[2,1-f][1,2,4]triazin-7-yl)-2-cyano-3,4-dihydroxytetrahydrofuran-2-yl)methyl 2-phenylacetate] | 12 | 28 | 6.25 | 8.44 |  |  |  | 
2 | CCC(C)(C)C(=O)OC[C@@]1(C#N)O[C@@H](c2ccc3c(N)ncnn23)[C@H](O)[C@@H]1O [Compound 35, ((2R,3S,4R,5S)-5-(4-aminopyrrolo[2,1-f][1,2,4]triazin-7-yl)-2-cyano-3,4-dihydroxytetrahydrofuran-2-yl)methyl 2,2-dimethylbutanoate] |  |  |  |  | 124 | 273 | 24.6 | 48.2
3 | CC(=O)OC[C@@]1(C#N)O[C@@H](c2ccc3c(N)ncnn23)[C@H](O)[C@@H]1O [Compound 4, ((2R,3S,4R,5S)-5-(4-aminopyrrolo[2,1-f][1,2,4]triazin-7-yl)-2-cyano-3,4-dihydroxytetrahydrofuran-2-yl)methyl acetate] |  |  |  |  | 9 | 23 | 4.61 | 10.1
4 | CC1(C(=O)OC[C@@]2(C#N)O[C@@H](c3ccc4c(N)ncnn34)[C@H](O)[C@@H]2O)CC1 [Compound 15, ((2R,3S,4R,5S)-5-(4-aminopyrrolo[2,1-f][1,2,4]triazin-7-yl)-2-cyano-3,4-dihydroxytetrahydrofuran-2-yl)methyl 1-methylcyclopropane-1-carboxylate] |  |  |  |  | 23 | 104 | 50 | 31.1
5 | CC(C)C(=O)Nc1ncnn2c([C@@H]3O[C@](C#N)(CO)[C@@H](O)[C@H]3O)ccc12 [Compound 30, N-(7-((2S,3R,4S,5R)-5-cyano-3,4-dihydroxy-5-(hydroxymethyl)tetrahydrofuran-2-yl)pyrrolo[2,1-f][1,2,4]triazin-4-yl)isobutyramide] |  |  |  |  | 789 | 789 | 36.2 | 50
6 | CCC(CC)C(=O)Nc1ncnn2c([C@@H]3O[C@](C#N)(COC(=O)C(CC)CC)[C@@H](O)[C@H]3O)ccc12 [Compound 11, ((2R,3S,4R,5S)-2-cyano-5-(4-(2-ethylbutanamido)pyrrolo[2,1-f][1,2,4]triazin-7-yl)-3,4-dihydroxytetrahydrofuran-2-yl)methyl 2-ethylbutanoate] |  |  |  |  | 37 | 56 | 50 | 50
7 | CC(C)CC(=O)OC[C@@]1(C#N)O[C@@H](c2ccc3c(N)ncnn23)[C@H](O)[C@@H]1O [Compound 3, ((2R,3S,4R,5S)-5-(4-aminopyrrolo[2,1-f][1,2,4]triazin-7-yl)-2-cyano-3,4-dihydroxytetrahydrofuran-2-yl)methyl 3-methylbutanoate] |  |  |  |  | 12 | 42 | 9.33 | 13.2
8 | CCC(=O)OC[C@@]1(C#N)O[C@@H](c2ccc3c(N)ncnn23)[C@H](O)[C@@H]1O [Compound 5, ((2R,3S,4R,5S)-5-(4-aminopyrrolo[2,1-f][1,2,4]triazin-7-yl)-2-cyano-3,4-dihydroxytetrahydrofuran-2-yl)methyl propionate] |  |  |  |  | 10 | 29 | 10.5 | 9.84
9 | CC(C)C(=O)OC[C@@]1(C#N)O[C@@H](c2ccc3c(N)ncnn23)[C@H](OC(=O)C(C)C)[C@@H]1OC(=O)C(C)C [Compound 20, (2R,3S,4S,5S)-5-(4-aminopyrrolo[2,1-f][1,2,4]triazin-7-yl)-2-cyano-2-((isobutyryloxy)methyl)tetrahydrofuran-3,4-diyl bis(2-methylpropanoate)] |  |  |  |  | 2 | 3 | 12.8 | 50

— patent publication US20240199676A1, “ANTIVIRAL COMPOUNDS AND METHODS OF MAKING AND USING THE SAME” (Gilead Sciences, Inc., priority 2022, published 2024)
